Measured values: patent US20190076439A1, “AMINOPHENOTHIAZINES FOR MODULATING THE NUMBER OF SYNAPSES” (CONSEJO SUPERIOR DE INVESTIGACIONES CIENTIFICAS (CSIC), priority 2015, published 2019)

Legend:
[1] = target: T1, interaction between human NCS1 and Ric8a (Homo sapiens, UniProt P62166); test: Coimmunoprecipitation interference test of the NCS1/Ric8a interaction in lysate of transfected HEK293 cells; type: biochemical; conditions: HEK293 cells transfected with V5-Ric8a and NCS1; lysate incubated with compound; FIG. 2
T1 construct: The NCS1 construct was subcloned into pCDNA3.1; expressed in transfected cells; host or cells: HEK293
Procedure: The DMSO lane represents a positive control of the interaction.
In order to check whether the interaction which has been previously detected (Romero-Pozuelo J et al. The guanine-exchange factor Ric8a binds to the Ca^2+ sensor NCS-1 to regulate synapse number and neurotransmitter release. J Cell Sci. 2014 Oct. 1; 127(Pt 19):4246-59) between the Drosophila Frq2 and Ric8a proteins, the coimmunoprecipitation of their human equivalents, NCS1 and Ric8a was tested. Human Ric8a was subcloned into nV5pCDNA3.1. The NCS1 construct was subcloned into pCDNA3.1. The cotransfections were carried out in HEK293 cells using the Superfect® (Qiagen®) reagent and lysed 48 hours later. Before its clarification, the lysates were incubated with the respective compound at 4° C. for the night (12 hours) with and without anti-V5 (Invitrogen®) or anti-NCS1 (Cell Signaling Technology®) antibodies as is indicated in each experiment. As a negative control, immunoprecipitations were carried out with an unrelated antibody. The following antibodies and dilutions were used with the Western blots: rabbit anti-NCS1 (1:1000) and mouse anti-V5 (1:2000). […] The Ric8a immunoprecipitation pulls NCS1 and vice versa. […]

[2] = tested on: Drosophila fmr1 mutant and wild type larvae
Excerpt: FIG. 3 A) volume of the neuromuscular plate normalized with respect to the wild type. Wt DMSO=wild type larvae grown in medium with DMSO carrier (200 micromolar), wt FD44=larvae grown in medium with FD44 dissolved in DMSO (200 micromolar), dFMRPmutDMSO=mutant larvae for the fmr1 gene grown in medium with DMSO, dFMRPmut FD44=mutant larvae grown in medium with FD44 (200 micromolar). B) Same genotypes computing the synapse number (immunopositive points for the nc82 monoclonal antibody). C) Same genotypes computing the number of collateral branches. D) Representative images of each genotype. Each image is an accumulation of all the confocal planes.
The mutating in the fmr1 gene corresponds to Fmr1^Δ50M # BL-6930 and the wild type corresponds to the Canton-S strain, all originating from the repository of the Bloomington Drosophila Stock Center. […] Once the medium had cooled, the vials were used normally for placing eggs and growing larvae at 25° C. until reaching the advanced LIII stage.
Reaching the advanced larva III stage, the animals were surgically processed to expose the neuromuscular junctures (NMJ) following the described method (Martin-Peña et al., Age-independent synaptogenesis by phosphoinositide 3 kinase. J Neurosci. 2006 Oct. 4; 26(40):10199-208). The nc82 antibody is a specific monoclonal for the Bruchpilot protein of Drosophila belonging to the CAST family of vertebrae and forms the presynaptic specialization. It was obtained from the Drosophila Hybridoma Bank (DSHB). The anti-HRP antibody produced in rabbits marks the neuronal membrane and was obtained from Jackson ImmunoResearch. A larval neuromuscular juncture was analyzed up to a total of 8-12 larvae per genotype to avoid growth artefacts. The serialized confocal sections of 1 micrometer thickness were analyzed and quantified using the Imaris® program.
The larval preparations were stained with the nc82 antibody to visualize the synapse and with the anti-HRP to visualize the membrane of the axon. Lastly, the synapse number was measured in images obtained in confocal microscopy and quantified by means of Imaris® software.

[3] = target: T2, Drosophila NCS-1 (Frq2) protein (Drosophila melanogaster, UniProt Q9VWX8); test: Crystallographic structure of the NCS-1 complex with FD44; type: binding; conditions: 1.6 Å dataset, FIG. 4
T2 sequence (Q9VWX8 1-187): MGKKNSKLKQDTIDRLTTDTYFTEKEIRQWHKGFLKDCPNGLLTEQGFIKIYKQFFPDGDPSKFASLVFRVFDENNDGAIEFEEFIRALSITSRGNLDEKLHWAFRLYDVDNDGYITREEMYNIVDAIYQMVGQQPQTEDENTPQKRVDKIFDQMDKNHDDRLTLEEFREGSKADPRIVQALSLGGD
Excerpt: FIG. 4 (A) Representation of the crystallographic structure of the NCS1/FD44 complex. The FD44 molecule is shown in sticks. The 2Fo-Fc map of the small molecule is shown at 1σ. (B) Representation of the electrostatic molecular surface of NCS1 bound to FD44 where the hydrophobic environment of FD44 is observed. (C) Detailed view of the amino acids in contact with FD44. The majority of the interactions are Van der Waals, except a strong hydrogen bond with T92, that is mediated by water molecule (with discontinuous black lines), and three weak hydrogen bonds where a C atom is the hydrogen donor and an O atom is the acceptor. (D) Close-up view of the cavity where FD44 is bound.
The purified Drosophila NCS-1 (Frq2) protein was dialyzed with water and concentrated to 10 mg ml-1 using a concentrator with a cut membrane of 10 kDa (Vivaspin®). 0.3 mg of FD44 were added to 250 μl of protein sample and incubated for 16 hours at 4° C. The insoluble fraction of the compound was separated by centrifugation. The preliminary crystallization experiments were carried out using the Innovadine® crystallization robot and commercial crystallization kits (Molecular Dimensions®, Qiagen®, Hampton Research® and Jena Bioscience®). […]

T1 sequence (P62166 2-190 limits assumed): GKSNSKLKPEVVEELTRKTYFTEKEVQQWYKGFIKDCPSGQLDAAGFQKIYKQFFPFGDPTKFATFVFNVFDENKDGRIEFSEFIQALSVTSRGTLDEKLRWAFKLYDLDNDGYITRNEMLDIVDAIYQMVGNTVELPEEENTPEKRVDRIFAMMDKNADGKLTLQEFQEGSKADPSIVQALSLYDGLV

With `O=C(CN1CCCCC1)NN1c2ccccc2Sc2ccccc21` [FD44] the “inhibition of the interaction between human NCS1 and Ric8a (coimmunoprecipitation, Western blot)” value [1] was “effectively inhibits this interaction”, the “neuronal projection volume (volume of the neuromuscular plate)” value ([2]; fmr1 mutant larvae, 200 micromolar in culture medium, FIG. 3A) was “reverts the neuronal projection volume to the normal levels of the controls” and the “synapse number (nc82 immunopositive points)” value ([2]; fmr1 mutant larvae, 200 micromolar in culture medium, FIG. 3B) was “reversion in the mutant which has ingested FD44”. The “effect on wild type control (volume of the neuromuscular plate)” value ([2]; in vivo) was “innocuous for the wild type control”, the “collateral branch number (neuritogenesis)” value ([2]; wild type and fmr1 mutant larvae, 200 micromolar in culture medium, FIG. 3C) was “does not show any change” and the “binding mode in the NCS-1 crystal complex” value [3] was “inserted in the N-terminal part of the elongated hydrophobic groove”.
